In US20070299032A1, “Method and Composition for Thickening Hair” (Shiseido Company, Ltd., priority 2003, published 2007):

Assays:
Format in all cases: cell-based
FGF-7 [1] = assay: Increased expression of FGF-7 in human dermal papilla cells by quantitative RT-PCR
Method: The human dermal papilla cells (DPC) used in the experiment consisted of DPC originating in a person that were placed in frozen storage after being isolated and cultured from human scalp provided as a by-product of plastic surgery. […] Only MEM (serum-free) was used for the control cells, and these cells were treated in the same manner. mRNA was extracted from the cultured cells with MagNAPureLC (Roche Diagnostics) at 2, 4, 8 and 24 hours after addition of adenosine followed by cDNA synthesis using the SuperScriptII reverse transcriptase kit (Invitrogen). The expressed amounts of mRNA were compared by real-time PCR using the fluorescent pigment CyberGreen I, which binds to the minor grooves of double-stranded DNA, with the LightCycler-FastStart DNA Master SYBR Green I Kit (Roche Diagnostics) by using the synthesized cDNA as a template. […] This fluorescent intensity reflects the amount of PCR product at that point in time. The amount of expressed gene was hypothesized to be that which is amplified while satisfying Y=A×2^X for the PCR product Y of the initial amount of template A during the exponential amplification period of the PCR product relative to the number of PCR cycles X, and a relative value was calculated from the number of cycles needed to obtain a given amount of PCR product. The following indicates the FGF-7 amplification primers used in this study. An RT-PCR experiment was carried out in the same manner as Experiment 1 with the exception of using two concentrations of adenosine consisting of 10 μM and 100 μM and setting the duration of adenosine treatment to 3 hours. […] The results are shown in FIGS. 4, 5 and 6, respectively.

FGF-7 [2] = assay: Increased expression of FGF-7 in human immortalized dermal papilla cells by quantitative RT-PCR; details: human immortalized dermal papilla cells (SV40 large T antigen), adenosine, 2 hours, FIG. 8
Method: mRNA was extracted from the cultured cells with MagNAPureLC (Roche Diagnostics) at 2, 4, 8 and 24 hours after addition of adenosine followed by cDNA synthesis using the SuperScriptII reverse transcriptase kit (Invitrogen). The expressed amounts of mRNA were compared by real-time PCR using the fluorescent pigment CyberGreen I, which binds to the minor grooves of double-stranded DNA, with the LightCycler-FastStart DNA Master SYBR Green I Kit (Roche Diagnostics) by using the synthesized cDNA as a template. […] The amount of expressed gene was hypothesized to be that which is amplified while satisfying Y=A×2^X for the PCR product Y of the initial amount of template A during the exponential amplification period of the PCR product relative to the number of PCR cycles X, and a relative value was calculated from the number of cycles needed to obtain a given amount of PCR product. […]

FGF-7 [3] = assay: Increased expression of FGF-7 in human outer root sheath cells by quantitative RT-PCR; details: adenosine 10 or 100 μM, 3 hours, FIG. 9
Method: The expressed amounts of mRNA were compared by real-time PCR using the fluorescent pigment CyberGreen I, which binds to the minor grooves of double-stranded DNA, with the LightCycler-FastStart DNA Master SYBR Green I Kit (Roche Diagnostics) by using the synthesized cDNA as a template. More specifically, a total volume of 20 μl of reaction liquid (MgCl2: 2 mM, forward and reverse primer: 0.25 μM each) was prepared according to the manual provided using the LightCycler-FastStart DNA Master SYBR Green I Kit (Roche Diagnostics), and a PCR reaction was carried out with the LightCycler (enzyme activation: 95° C./10 minutes; thermal denaturation: 95° C./15 seconds; annealing: 58° C./5 seconds; elongation reaction: 72° C./10 seconds; 40 cycles of thermal denaturation to elongation reaction) followed by monitoring fluorescent intensity at completion of the elongation reaction of each cycle. This fluorescent intensity reflects the amount of PCR product at that point in time. The amount of expressed gene was hypothesized to be that which is amplified while satisfying Y=A×2^X for the PCR product Y of the initial amount of template A during the exponential amplification period of the PCR product relative to the number of PCR cycles X, and a relative value was calculated from the number of cycles needed to obtain a given amount of PCR product. […]

[4] = 100 μM, 2 hours, FIGS. 4, 5 and 6
[5] = CCPA 100 μM, C1-IB-MECA 50 μM, NECA 10 μM, 3 hours, FIG. 3

| SMILES | inhibition of increased FGF-7 expression by the adenosine receptor inhibitor 8-SPT (FGF-7 [1]; 100 μM, 2 hours) | expression of FGF-7 (relative amount) (FGF-7 [1]; [4]) | expression of FGF-7 (relative amount) (FGF-7 [1]; [5]) | further results |
| --- | --- | --- | --- | --- |
| Cc1ccc(C2Oc3ccccc3C(=O)C2C)cc1 (stereo not drawn) [3,4′-dimethylflavanone] | not observed | increased expression of FGF-7 |  |  |
| CC1C(=O)c2ccccc2OC1c1ccccc1 (stereo not drawn) [3-methylflavanone] | not observed | increased expression of FGF-7 |  |  |
| OC[C@H]1O[C@@H](n2cnc3c(NC4CCCC4)nc(Cl)nc32)[C@H](O)[C@@H]1O [CCPA, 2-chloro-N^6-cyclopentyladenosine, reference compound] |  |  | significantly increased |  |
| CCNC(=O)[C@H]1O[C@@H](n2cnc3c(N)ncnc32)[C@H](O)[C@@H]1O [NECA, N-ethylcarboxyamidoadenosine, reference compound] |  |  | significantly increased |  |
| Nc1ncnc2c1ncn2[C@@H]1O[C@H](CO)[C@@H](O)[C@H]1O [adenosine] |  |  |  | expression of FGF-7 (relative amount) (FGF-7 [1]; adenosine 10 μM and 100 μM, 3 hours, FIG. 2): increase dependent on the concentration of adenosine; expression of FGF-7 (relative value) (FGF-7 [1]; adenosine 100 μM, mRNA at 2, 4, 8 and 24 hours, FIG. 1): increased considerably; expression of FGF-7 (relative amount) (FGF-7 [2]): increased expression of FGF-7; expression of FGF-7 (relative amount) (FGF-7 [3]): prominent increase in expression of FGF-7 |
| O=C1CC(c2ccccc2)Oc2ccccc21 (stereo not drawn) [flavanone, reference compound] | not observed | increased expression of FGF-7 |  |  |
